The term IC50 denotes the concentration that gives 50% inhibition.

Structures are written as SMILES. In brackets after ≈: the same amount, converted by molar mass. Read-outs that look alike come from different tables or passages of the source.

Experiment [1] deals with KB V1 cells (multiple drug resistant). Nature of the experiment: Chemosensitization (cytotoxicity) assay of multiple drug resistant cells, MTT. The experiment is classed as cell-based. To be noted: Homo sapiens, KB-V1, 72 h. As to the method:
(§1) Cytotoxicity assays to determine 50% inhibition of growth (IC50) were done in 96-well tissue culture microtiter trays (Costar, Cambridge, Mass.). Cell growth was determined as follows: KB 3-1 (sensitive) and KB V1 (multiple drug resistant) cells grown in Dulbecco's modified Eagle medium (Gibco BRL, Division of Life Technologies, Inc., Grand Island, N.Y.) were added to each microtiter well at 1×10^4 cells in 200 μL of growth medium in the presence and absence of verapamil, 5-acetylardeemin and 5-acetyl-15b-β-hydroxyardeemin at […]. Anticancer cytotoxic agents adriamycin (ADR), vinblastine (VBL) and vincristine (VCR) (Sigma, St. Louis, Mo.) were added in final concentrations ranging from 0.0001 to 10 μg/mL. Cells were incubated at 37° C. in a humidified atmosphere of 4% CO2 for 72 hours. Cell growth was measured by the reduction of 3-(4,5-dimethyl-thiazol-2-yl)-2,5-diphenyltetrazolium bromide (MTT), added to each well at 0.1 mg/mL. The plates were incubated at 37° C. in humidified 4% CO2 for 3 hours. The trays were spun at 1000×g for 10 minutes, the supernatant removed by aspiration and the residual formazan reduction product dissolved in 100 μL of DMSO. Growth was quantitated by measuring the optical absorbance in each well at 570 nm in a microtiter plate reader.

Another experiment concerns KB 3-1 cells (sensitive). The experiment is described as follows: Cytotoxicity assay in drug-sensitive cells, MTT. To be noted: Homo sapiens, modulator: none, 72 hours. The experiment is classed as cell-based. As to the method:
as §1

The test system of experiment [2] is certain mammalian target cells. To be noted: known compounds; cited from earlier work.

`COc1cccc2c1C(=O)c1c(O)c3c(c(O)c1C2=O)C[C@@](O)(C(=O)CO)C[C@@H]3O[C@H]1C[C@H](N)[C@H](O)[C@H](C)O1` [ADR, adriamycin]: the values for the IC50 (in experiment [1] (read-out: ADR-IC50); in the experiment with KB 3-1 cells (sensitive) (read-out: ADR-IC50)) were 3 µg/mL and 0.012 µg/mL (≈ 22.1 nM), respectively. For the compound `CC[C@]1(O)C[C@@H]2CN(CCc3c([nH]c4ccccc34)[C@@](C(=O)OC)(c3cc4c(cc3OC)N(C)[C@H]3[C@@](O)(C(=O)OC)[C@H](OC(C)=O)[C@]5(CC)C=CCN6CC[C@]43[C@@H]65)C2)C1` [VBL, vinblastine], the IC50 amounted to 1.2 µg/mL in experiment [1] (read-out: VBL-IC50) and 0.001 µg/mL (≈ 1.23 nM) in the experiment with KB 3-1 cells (sensitive) (read-out: VBL-IC50). As for `CC[C@]1(O)C[C@H]2CN(CCc3c([nH]c4ccccc34)[C@@](C(=O)OC)(c3cc4c(cc3OC)N(C=O)[C@H]3[C@@](O)(C(=O)OC)[C@H](OC(C)=O)[C@]5(CC)C=CCN6CC[C@]43[C@@H]65)C2)C1` [VCR, vincristine], the IC50 in experiment [1] (read-out: VCR-IC50) amounted to 7 µg/mL; in the experiment on KB 3-1 cells (sensitive) (read-out: VCR-IC50), 0.001 µg/mL (≈ 1.21 nM).

Turning to `COc1ccc(CCN(C)CCCC(C#N)(c2ccc(OC)c(OC)c2)C(C)C)cc1OC` (stereo not drawn) [Verapamil, verapamil], the “attenuation of drug resistance” value in experiment [2] was “attenuate, if not reverse, drug resistance in certain mammalian target cells”. Take `CCC1=C[C@@H]2CN3CCc4c([nH]c5ccccc45)[C@@](C(=O)OC)(C2)[C@@H]13` [catharanthine]: the “attenuation of drug resistance” value in experiment [2] is recorded as “attenuate, if not reverse, drug resistance in certain mammalian target cells”. Turning to `COc1ccc([C@@H]2Sc3ccccc3N(CCN(C)C)C(=O)[C@@H]2OC(C)=O)cc1` [diltiazem], the “attenuation of drug resistance” value in experiment [2] was “attenuate, if not reverse, drug resistance in certain mammalian target cells”.

Source of the values: US5284947A, “Multiple drug resistance-attenuating compounds” (Abbott Laboratories, priority 1992, dated 1994).
